Reference: patent publication US20020035061A1, “COMPOSITIONS AND METHODS FOR TREATING INFECTIONS USING CATIONIC PEPTIDES ALONE OR IN COMBINATION WITH ANTIBIOTICS” (priority 1996, published 2002)
Peptide text beside a SMILES is read from it.

Columns and labels:
Experiment in all cases: microbe, parasite or virus in culture
Assay type in all cases: cell-based
[1] = tested on: microorganisms with acquired resistance; conditions: for Peptide MIC: in µg/mL
bacterial isolates = conditions: for Peptide MIC Alone: Tobramycin section
[2] = tested on: vancomycin / teicoplanin resistant enterococci
[3] = tested on: inherently resistant microorganisms
S. aureus = S. aureus SA25
[4] = S. aureus SA014 (also SA014 MRSA)
[5] = S. aureus SA025 (also SA025 MRSA)

CC[C@H](C)[C@H](NC(=O)[C@H](C)NC(=O)[C@@H]1CCCN1C(=O)CNC(=O)[C@H](C)NC(=O)[C@@H](NC(=O)[C@H](CCCCN)NC(=O)[C@H](CC(C)C)NC(=O)CNC(=O)[C@H](CO)NC(=O)[C@H](CC(C)C)NC(=O)[C@@H](NC(=O)[C@H](CCCNC(=N)N)NC(=O)[C@H](CCCNC(=N)N)NC(=O)[C@H](Cc1c[nH]c2ccccc12)NC(=O)[C@H](Cc1c[nH]c2ccccc12)NC(=O)[C@H](CCCCN)NC(=O)[C@@H](N)CCCCN)C(C)C)[C@@H](C)O)C(=O)N[C@@H](CCC(N)=O)C(=O)N[C@@H](CO)C(=O)N[C@H](C(=O)N[C@@H](CC(C)C)C(=O)N[C@@H](CC(N)=O)C(=O)N[C@@H](CCCCN)C(=O)O)C(C)C [MBI 21A1] (H-KKWWRRVLSGLKTAGPAIQSVLNK-OH; N-terminus and C-terminus assumed)
Peptide MIC + Tobramycin ([1]; P. aeruginosa PA022): 0.125 mg/L | Tobramycin MIC + Peptide ([1]; P. aeruginosa PA022): 4 mg/L | Peptide MIC Alone ([1]; P. aeruginosa PA022, Tobramycin section): 4 mg/L | Peptide MIC + Tobramycin ([1]; P. aeruginosa PA026): 0.125 mg/L | Tobramycin MIC + Peptide ([1]; P. aeruginosa PA026): 4 mg/L | Peptide MIC Alone ([1]; P. aeruginosa PA026, Tobramycin section): 16 mg/L | Peptide MIC + Tobramycin ([1]; P. aeruginosa PA030): 8 mg/L | Tobramycin MIC + Peptide ([1]; P. aeruginosa PA030): 0.25 mg/L | Peptide MIC Alone ([1]; P. aeruginosa PA030, Tobramycin section): 16 mg/L | Peptide MIC + Tobramycin ([1]; P. aeruginosa PA032): 32 mg/L | Tobramycin MIC + Peptide ([1]; P. aeruginosa PA032): 1 mg/L | Peptide MIC Alone ([1]; P. aeruginosa PA032, Tobramycin section): 64 mg/L | Ciprofloxacin MIC + Peptide ([1]; P. aeruginosa PA41): 1 mg/L | Peptide MIC + Ciprofloxacin ([1]; P. aeruginosa PA41): 4 mg/L | Peptide MIC Alone ([1]; P. aeruginosa PA41, Ciprofloxacin section): 16 mg/L | Ciprofloxacin MIC + Peptide ([1]; P. aeruginosa PA77): 1 mg/L | Peptide MIC + Ciprofloxacin ([1]; P. aeruginosa PA77): 16 mg/L | Peptide MIC Alone ([1]; P. aeruginosa PA77, Ciprofloxacin section): 32 mg/L | Peptide MIC ([1]; P. aeruginosa, combination with Ciprofloxacin): 16 | Peptide MIC ([1]; S. aureus, combination with Ciprofloxacin): 2 | Peptide MIC ([1]; S. aureus, combination with Mupirocin): 16 | Peptide MIC + Tobramycin ([1]; S. maltophilia SMA029): 32 mg/L | Tobramycin MIC + Peptide ([1]; S. maltophilia SMA029): 4 mg/L | Peptide MIC Alone ([1]; S. maltophilia SMA029, Tobramycin section): 128 mg/L | Peptide MIC + Tobramycin ([1]; S. maltophilia SMA030): 32 mg/L | Tobramycin MIC + Peptide ([1]; S. maltophilia SMA030): 4 mg/L | Peptide MIC Alone ([1]; S. maltophilia SMA030, Tobramycin section): >128 mg/L | Peptide MIC + Tobramycin (bacterial isolates; B. cepacia BC001): 0.25 mg/L | Tobramycin MIC + Peptide (bacterial isolates; B. cepacia BC001): 32 mg/L | Peptide MIC Alone (bacterial isolates; B. cepacia BC001): >128 mg/L | Mupirocin MIC + Peptide (bacterial isolates; E. coli ECO3): 3 mg/L | Peptide MIC + Mupirocin (bacterial isolates; E. coli ECO3): 2 mg/L | Mupirocin MIC + Peptide (bacterial isolates; E. coli SBECO2): 30 mg/L | Peptide MIC + Mupirocin (bacterial isolates; E. coli SBECO2): 2 mg/L | Peptide MIC + Vancomycin (bacterial isolates; E. faecalis EFS007): 1 mg/L | Vancomycin MIC + Peptide (bacterial isolates; E. faecalis EFS007): 1 mg/L | Peptide MIC + Vancomycin (bacterial isolates; E. faecalis EFS012): 1 mg/L | Vancomycin MIC + Peptide (bacterial isolates; E. faecalis EFS012): 16 mg/L | Peptide MIC + Vancomycin (bacterial isolates; E. faecalis EFS013): 1 mg/L | Vancomycin MIC + Peptide (bacterial isolates; E. faecalis EFS013): 32 mg/L | Peptide MIC + Vancomycin (bacterial isolates; E. faecium EFM010): 2 mg/L | Vancomycin MIC + Peptide (bacterial isolates; E. faecium EFM010): 32 mg/L | Ciprofloxacin MIC + Peptide (bacterial isolates; P. aeruginosa PA4): 0.125 mg/L | Peptide MIC + Ciprofloxacin (bacterial isolates; P. aeruginosa PA4): 32 mg/L | Peptide MIC + Tobramycin (bacterial isolates; P. aeruginosa PA022): 0.125 mg/L | Tobramycin MIC + Peptide (bacterial isolates; P. aeruginosa PA022): 4 mg/L | Peptide MIC Alone (bacterial isolates; P. aeruginosa PA022): 4 mg/L | Peptide MIC + Tobramycin (bacterial isolates; P. aeruginosa PA026): 0.125 mg/L | Tobramycin MIC + Peptide (bacterial isolates; P. aeruginosa PA026): 4 mg/L | Peptide MIC Alone (bacterial isolates; P. aeruginosa PA026): 16 mg/L | Ciprofloxacin MIC + Peptide (bacterial isolates; P. aeruginosa PA41): 1 mg/L | Peptide MIC + Ciprofloxacin (bacterial isolates; P. aeruginosa PA41): 4 mg/L | Mupirocin MIC + Peptide (bacterial isolates; P. aeruginosa SBPA1): 30 mg/L | Peptide MIC + Mupirocin (bacterial isolates; P. aeruginosa SBPA1): 32 mg/L | Peptide MIC + Tobramycin (bacterial isolates; [4]): 16 mg/L | Tobramycin MIC + Peptide (bacterial isolates; [4]): 0.125 mg/L | Peptide MIC Alone (bacterial isolates; [4]): 32 mg/L | Ciprofloxacin MIC + Peptide (bacterial isolates; S. aureus SA25): 0.125 mg/L | Peptide MIC + Ciprofloxacin (bacterial isolates; S. aureus SA25): 4 mg/L | Peptide MIC + Tobramycin (bacterial isolates; [5]): 1 mg/L | Tobramycin MIC + Peptide (bacterial isolates; [5]): 0.125 mg/L | Peptide MIC Alone (bacterial isolates; [5]): 2 mg/L | Ciprofloxacin MIC + Peptide (bacterial isolates; S. aureus SA93): 8 mg/L | Peptide MIC + Ciprofloxacin (bacterial isolates; S. aureus SA93): 1 mg/L | Peptide MIC + Tobramycin (bacterial isolates; S. haemolyticus SHA001): 4 mg/L | Tobramycin MIC + Peptide (bacterial isolates; S. haemolyticus SHA001): 0.5 mg/L | Peptide MIC Alone (bacterial isolates; S. haemolyticus SHA001): 16 mg/L | Peptide MIC + Tobramycin (bacterial isolates; S. haemolyticus SHA005): 4 mg/L | Tobramycin MIC + Peptide (bacterial isolates; S. haemolyticus SHA005): 1 mg/L | Peptide MIC Alone (bacterial isolates; S. haemolyticus SHA005): 32 mg/L | Peptide MIC + Tobramycin (bacterial isolates; S. maltophilia SMA029): 32 mg/L | Tobramycin MIC + Peptide (bacterial isolates; S. maltophilia SMA029): 4 mg/L | Peptide MIC Alone (bacterial isolates; S. maltophilia SMA029): 128 mg/L | Peptide MIC + Tobramycin (bacterial isolates; S. maltophilia SMA030): 32 mg/L | Tobramycin MIC + Peptide (bacterial isolates; S. maltophilia SMA030): 4 mg/L | Peptide MIC Alone (bacterial isolates; S. maltophilia SMA030): >128 mg/L | FIC (bacterial isolates; peptide + Ciprofloxacin, P. aeruginosa PA4): 0.50 | FIC (bacterial isolates; peptide + Ciprofloxacin, P. aeruginosa PA41): 0.50 | FIC (bacterial isolates; peptide + Ciprofloxacin, S. aureus SA25): 0.16 | FIC (bacterial isolates; peptide + Ciprofloxacin, S. aureus SA93): 0.50 | FIC (bacterial isolates; peptide + Mupirocin, E. coli ECO3): 0.28 | FIC (bacterial isolates; peptide + Mupirocin, E. coli SBECO2): 0.28 | FIC (bacterial isolates; peptide + Mupirocin, P. aeruginosa SBPA1): 0.53 | FIC (bacterial isolates; peptide + Tobramycin, B. cepacia BC001): 0.25 | FIC (bacterial isolates; peptide + Tobramycin, P. aeruginosa PA022): 0.53 | FIC (bacterial isolates; peptide + Tobramycin, P. aeruginosa PA026): 0.51 | FIC (bacterial isolates; peptide + Tobramycin, S. aureus SA014 (also SA014 MRSA)): 0.50 | FIC (bacterial isolates; peptide + Tobramycin, S. aureus SA025 (also SA025 MRSA)): 0.50 | FIC (bacterial isolates; peptide + Tobramycin, S. haemolyticus SHA001): 0.50 | FIC (bacterial isolates; peptide + Tobramycin, S. haemolyticus SHA005): 0.38 | FIC (bacterial isolates; peptide + Tobramycin, S. maltophilia SMA029): 0.28 | FIC (bacterial isolates; peptide + Tobramycin, S. maltophilia SMA030): 0.16 | FIC (bacterial isolates; peptide + Vancomycin, E. faecalis EFS007): 0.56 | FIC (bacterial isolates; peptide + Vancomycin, E. faecalis EFS012): 0.16 | FIC (bacterial isolates; peptide + Vancomycin, E. faecalis EFS013): 0.28 | FIC (bacterial isolates; peptide + Vancomycin, E. faecium EFM010): 0.56 | Peptide MIC + Vancomycin ([2]; E. faecalis EFS012): 2 mg/L | Vancomycin MIC + Peptide ([2]; E. faecalis EFS012): 4 mg/L | Peptide MIC + Vancomycin ([2]; E. faecalis EFS013): 2 mg/L | Vancomycin MIC + Peptide ([2]; E. faecalis EFS013): 4 mg/L | Vancomycin MIC + Peptide ([2]; in combination with the labelled peptide, E. faecium EFM010): 4 mg/L | Peptide MIC + Vancomycin ([2]; in combination with vancomycin, E. faecium EFM010): 16 mg/L | Peptide MIC Alone ([3]; E. coli, Mupirocin section): 2 mg/L | FIC ([3]; peptide + Tobramycin, S. aureus): 0.50 | Ciprofloxacin MIC + Peptide (S. aureus): 0.125 mg/L | Peptide MIC + Ciprofloxacin (S. aureus): 4 mg/L
